Laboratory results as given in US7300943B2, “GSK-3 inhibitors” (Pfizer Inc., priority 2003, dated 2007).
Structures can show the parent of a compound that is named as a salt.

Target: T1, GSK-3 (Homo sapiens, UniProt P49841)
T1 construct: made in house
Assay: GSK-3 inhibition, cell-free 33P-ATP peptide substrate SPA assay
Type: biochemical
Conditions: read-out: inhibitory activity, expressed as IC50's, against GSK-3
Procedure: The specific activities of the compounds of formula (I) in inhibiting GSK-3 can be determined in both cell-free and cell-based assays, both of which have been previously described in the relevant art. See, for example, U.S. Pat. Nos. 6,417,185 and 6,489,344, the disclosures of which are incorporated herein by reference in their entirety.
A cell-free assay can be generally carried out by incubating GSK-3 with a peptide substrate, radiolabeled ATP (e.g., for example, γ^33P- or γ^32P-ATP, both of which are available from Amersham; Arlington Heights, Ill.), magnesium ions, and the compound to be assayed. […] The amount of γ^33P or γ^32P remaining in each well after washing is then quantified to determine the amount of radiolabeled phosphate incorporated into the peptide substrate. […]
Another example of a GSK-3 assay, similar to the one described hereinabove, is as follows: enzyme activities are assayed as the incorporation of ^33P from gamma phosphate of ^33P-ATP (Amersham; Arlington Heights, Ill.; catalog #AH-9968) into biotinylated peptide substrate PKTP-KKAKKL. […] The final concentration of ATP is 0.5 μM (final specific radioactivity of 4 μCi/nmol), and the final concentration of substrate is 0.75 μM. […] Radioactivity associated with the beads is then quantified by scintillation counting. […]

T1 sequence (P49841 whole entry): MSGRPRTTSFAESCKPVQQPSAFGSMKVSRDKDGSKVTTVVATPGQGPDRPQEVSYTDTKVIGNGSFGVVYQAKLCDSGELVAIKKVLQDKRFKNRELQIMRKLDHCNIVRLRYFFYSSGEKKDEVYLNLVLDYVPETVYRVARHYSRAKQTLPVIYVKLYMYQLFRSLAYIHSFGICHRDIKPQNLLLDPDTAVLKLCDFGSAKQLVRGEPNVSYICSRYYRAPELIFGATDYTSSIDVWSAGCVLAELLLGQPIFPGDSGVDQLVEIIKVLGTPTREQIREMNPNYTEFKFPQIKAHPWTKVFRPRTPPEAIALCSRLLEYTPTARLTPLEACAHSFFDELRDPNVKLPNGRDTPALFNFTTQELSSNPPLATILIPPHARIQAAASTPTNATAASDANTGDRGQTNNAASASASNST

O=c1cc(-c2ccccc2)c2c(C3CCC3)[nH]nc2[nH]1 [Example 5, 3-Cyclobutyl-4-phenyl-2,7-dihydro-pyrazolo[3,4-b]yridin-6-one hydrochloride]
IC50: 36 nM
